Test results reported in US20250009737A1, “COMPOUNDS AND METHODS FOR THE TARGETED DEGRADATION OF ANDROGEN RECEPTOR” (Arvinas Operations, Inc., priority 2023, published 2025).

What was measured:
[1] = system: CYP1A2 mRNA; assay: CYP1A2 mRNA induction in cryopreserved human hepatocytes; assay type: in vitro ADME; details: positive control inducer; human hepatocytes
Procedure: (§1) The induction potential of Compound A on CYP enzymes was assessed in cryopreserved human hepatocytes from three donors. Following treatment for with Compound A at concentrations of 0.03-30 μM for 48 hours, mRNA levels for CYP1A2, 2B6, 2C8, 2C9, 2C19, and 3A4 were determined by semiquantitative real-time polymerase chain reaction (PCR). Test article concentrations during 24-hour incubation were determined. The potential of Compound A to cause direct and time-dependent inhibition (TDI) of the activities of CYP1A2, 2B6, 2C8, 2C9, 2C19, 2D6, and 3A4 was evaluated in pooled human liver microsomes (HLM) at 0.2-15 μM. Probe substrate concentrations around Km were used for direction inhibition and initial TDI assays. For TDI assay, Compound A was pre-incubated with pooled HLM with and without NADPH for 30 minutes prior to incubation with a single concentration of probe substrate.

[2] = system: CYP2B6 mRNA; assay: CYP2B6 mRNA induction in cryopreserved human hepatocytes; assay type: in vitro ADME; details: positive control inducer; human hepatocytes
Procedure: as §1

| SMILES | CYP1A2 mRNA Fold induction, PC [1] | CYP2B6 mRNA Fold induction, PC [2] |
| --- | --- | --- |
| COc1ccc2[nH]c([S+]([O-])Cc3ncc(C)c(OC)c3C)nc2c1 (centres unmarked) [Omeprazole, reference compound] | 77-88 Fold |  |
| CCC1(c2ccccc2)C(=O)NC(=O)NC1=O [Phenobarbital, reference compound] |  | 14-25 Fold |
